From patent US20050282755A1, “Compositions having antimicrobial activity and uses thereof” (priority 2004, published 2005)
Converted amounts (≈) assume the structure as drawn. Non-standard residues stand in square brackets, D forms with d. Residues, ends and D or L forms follow the SMILES beside them. *: point of attachment. 1Nal = N[C@@H](Cc1cccc2ccccc12)C(=O)O; Stearoyl = CCCCCCCCCCCCCCCCCC(=O)*; Palmitoyl = CCCCCCCCCCCCCCCC(=O)*; Lauroyl = CCCCCCCCCCCC(=O)*; Hexanoyl = CCCCCC(=O)*

Columns and labels:
Format in all cases: cell-based
[1] = tested on: Staphylococcus aureus ATCC 29213; assay: MIC, NCCLS M7-A6 broth microdilution, cation-adjusted Mueller Hinton broth (Table 9, no superscript); conditions: ATCC 29213
Procedure: (§1) Cation-adjusted Mueller Hinton broth was used in the broth microdilution method. In brief, a log-phase bacterial suspension was used to inoculate wells of a 96-well plate so that the final inoculum for each well contained 5×10^5 to 1×10^6 CFU/milliliter. […] Plates were incubated overnight at 37° C. The lowest concentration of peptide that contained no visible growth as evidenced by a lack of turbidity when compared to the control (no peptide) was determined as the MIC. Unless otherwise noted, MIC values listed in Table 9 utilized this method of MIC determination.

[2] = tested on: Escherichia coli ATCC 25922; assay: MIC, NCCLS M7-A6 broth microdilution (Table 9, no superscript); conditions: ATCC 25922
Procedure: as §1

[3] = tested on: Pseudomonas aeruginosa ATCC 27853; assay: as above; conditions: ATCC 27853
Procedure: as §1

Salmonella dublin (Lane) = assay: as above
Procedure: as §1

[4] = tested on: Staphylococcus epidermidis ATCC 12228; assay: as above; conditions: ATCC 12228
Procedure: as §1

Structure (SMILES) | MIC S. aureus [1] | MIC E. coli [2] | MIC P. aeruginosa [3] | MIC S. dublin (Salmonella dublin (Lane)) | MIC S. epidermidis [4]
CCCCCC(=O)N[C@H](CCCNC(=N)N)C(=O)N[C@H](CO)C(=O)N[C@H](CCCNC(=N)N)C(=O)N[C@H](Cc1c[nH]c2ccccc12)C(=O)N[C@H](CCCNC(=N)N)C(=O)N[C@H](CC(=O)O)C(=O)N[C@@H](C(=O)N[C@H](C)C(=O)N[C@H](CCCNC(=N)N)C(=O)N[C@H](CC(N)=O)C(=O)N[C@H](Cc1ccccc1)C(=O)N[C@H](CC(C)C)C(=O)N[C@H](CCCNC(=N)N)C(N)=O)C(C)C [Peptide 188, Hexyl-rsrwrdvarnflr-NH2] (Hexanoyl-[dR][dS][dR][dW][dR][dD][dV][dA][dR][dN][dF][dL][dR]-NH2) | >64 µg/mL | 64 µg/mL (≈ 35 µM) | >64 µg/mL | >64 µg/mL | 16 µg/mL (≈ 8.75 µM)
CCCCCCCCCCCC(=O)N[C@H](CCCNC(=N)N)C(=O)N[C@H](CO)C(=O)N[C@H](CCCNC(=N)N)C(=O)N[C@H](Cc1c[nH]c2ccccc12)C(=O)N[C@H](CCCNC(=N)N)C(=O)N[C@H](CC(=O)O)C(=O)N[C@@H](C(=O)N[C@H](C)C(=O)N[C@H](C)C(=O)N[C@H](CC(N)=O)C(=O)N[C@H](Cc1ccccc1)C(=O)N[C@H](CCSC)C(=O)N[C@H](CCCNC(=N)N)C(N)=O)C(C)C [Peptide 230, Lauryl-rsrwrdvaanfmr-NH2] (Lauroyl-[dR][dS][dR][dW][dR][dD][dV][dA][dA][dN][dF][dM][dR]-NH2) | >64 µg/mL | >64 µg/mL | >64 µg/mL | >64 µg/mL | 4 µg/mL (≈ 2.17 µM)
CCCCCCCCCCCCCCCC(=O)NCCCC[C@H](NC(=O)[C@H](CCCNC(=N)N)NC(=O)[C@H](CC(C)C)NC(=O)[C@H](Cc1ccccc1)NC(=O)[C@H](CC(N)=O)NC(=O)[C@H](CCCNC(=N)N)NC(=O)[C@H](C)NC(=O)[C@@H](NC(=O)[C@H](CC(=O)O)NC(=O)[C@H](CCCNC(=N)N)NC(=O)[C@H](Cc1c[nH]c2ccccc12)NC(=O)[C@H](CCCNC(=N)N)NC(=O)[C@H](CO)NC(=O)[C@@H](N)CCCNC(=N)N)C(C)C)C(N)=O [Peptide 182, H2N-RSRWRDVARNFLRK(Palmitoyl)-NH2] (H-RSRWRDVARNFLRK(Palmitoyl)-NH2) | 32 µg/mL (≈ 15.3 µM) | >64 µg/mL | 64 µg/mL (≈ 30.5 µM) | 32 µg/mL (≈ 15.3 µM) | 4 µg/mL (≈ 1.91 µM)
CCCCCCCCCCCCCCCC(=O)NCCCC[C@@H](NC(=O)[C@@H](CCCNC(=N)N)NC(=O)[C@@H](CC(C)C)NC(=O)[C@@H](Cc1ccccc1)NC(=O)[C@@H](CC(N)=O)NC(=O)[C@@H](CCCNC(=N)N)NC(=O)[C@@H](C)NC(=O)[C@H](NC(=O)[C@@H](CC(=O)O)NC(=O)[C@@H](CCCNC(=N)N)NC(=O)[C@@H](Cc1c[nH]c2ccccc12)NC(=O)[C@@H](CCCNC(=N)N)NC(=O)[C@@H](CO)NC(=O)[C@H](N)CCCNC(=N)N)C(C)C)C(N)=O [Peptide 196, H2N-rsrwrdvarnflrk(Palmitoyl)-NH2] (H-[dR][dS][dR][dW][dR][dD][dV][dA][dR][dN][dF][dL][dR][dK](Palmitoyl)-NH2) | 64 µg/mL (≈ 30.5 µM) | >64 µg/mL | >64 µg/mL | 64 µg/mL (≈ 30.5 µM) | 32 µg/mL (≈ 15.3 µM)
CSCC[C@H](NC(=O)[C@H](Cc1ccccc1)NC(=O)[C@H](CC(N)=O)NC(=O)[C@H](CCCNC(=N)N)NC(=O)[C@H](C)NC(=O)[C@H](Cc1c[nH]c2ccccc12)NC(=O)[C@H](CC(=O)O)NC(=O)[C@H](CCCNC(=N)N)NC(=O)[C@H](Cc1c[nH]c2ccccc12)NC(=O)[C@H](CCCNC(=N)N)NC(=O)[C@H](CO)NC(=O)[C@H](CCCNC(=N)N)NC(C)=O)C(=O)N[C@@H](CCCNC(=N)N)C(N)=O [Peptide 94, Ac-RSRWRDWARNFMR-NH2] (Ac-RSRWRDWARNFMR-NH2) | >64 µg/mL | >64 µg/mL | >64 µg/mL | >64 µg/mL | 16 µg/mL (≈ 8.52 µM)
CCCCCCCCCCCCCCCCCC(=O)N[C@@H](C(=O)N[C@H](CCCNC(=N)N)C(=O)N[C@@H](C(=O)N[C@H](CO)C(=O)N[C@H](CCCNC(=N)N)C(=O)N[C@@H](C(=O)NCC(=O)N[C@H](CCCNC(=N)N)C(=O)N[C@H](CO)C(=O)N[C@H](CCCNC(=N)N)C(=O)N[C@H](Cc1c[nH]c2ccccc12)C(=O)N[C@H](CCCNC(=N)N)C(=O)N[C@H](CC(=O)O)C(=O)N[C@H](Cc1c[nH]c2ccccc12)C(=O)N[C@H](CO)C(=O)N[C@H](CCCNC(=N)N)C(=O)N[C@H](CC(N)=O)C(=O)N[C@H](Cc1ccccc1)C(=O)N[C@H](CCSC)C(=O)N[C@H](CCCNC(=N)N)C(=O)N[C@H](C)C(=O)N[C@H](C)C(=O)N[C@@H](CCCCNC(C)=O)C(N)=O)[C@H](C)O)C(C)C)[C@H](C)O [Peptide 86, Stearyl-trvsrtgrsrwrdwsrnfmraaK(Ac)-NH2] (Stearoyl-[dT][dR][dV][dS][dR][dT]G[dR][dS][dR][dW][dR][dD][dW][dS][dR][dN][dF][dM][dR][dA][dA]K(Ac)-NH2) |  | >64 µg/mL | >64 µg/mL |  | 32 µg/mL (≈ 10 µM)
CCCCCCCCCCCC(=O)N[C@@H](CCCNC(=N)N)C(=O)N[C@@H](CO)C(=O)N[C@@H](CCCNC(=N)N)C(=O)N[C@@H](Cc1cccc2ccccc12)C(=O)N[C@@H](CCCNC(=N)N)C(=O)N[C@@H](CC(=O)O)C(=O)N[C@@H](Cc1cccc2ccccc12)C(=O)N[C@@H](C)C(=O)N[C@@H](CCCNC(=N)N)C(=O)N[C@@H](CC(N)=O)C(=O)N[C@@H](Cc1cccc2ccccc12)C(=O)N[C@@H](CCSC)C(=O)N[C@@H](CCCNC(=N)N)C(N)=O [Peptide 155, Lauryl-RSRZRDZARNZMR-NH2 Z = 1-naphthylalanine] (Lauroyl-RSR[1Nal]RD[1Nal]ARN[1Nal]MR-NH2) | 64 µg/mL (≈ 30.6 µM) | >64 µg/mL | >64 µg/mL | 16 µg/mL (≈ 7.65 µM) | 16 µg/mL (≈ 7.65 µM)
CCCCCC(=O)N[C@H](CCCNC(=N)N)C(=O)N[C@H](CO)C(=O)N[C@H](CCCNC(=N)N)C(=O)N[C@H](Cc1c[nH]c2ccccc12)C(=O)N[C@H](CCCNC(=N)N)C(=O)N[C@H](CC(=O)O)C(=O)N[C@@H](C(=O)N[C@H](C)C(=O)N[C@H](CCCNC(=N)N)C(=O)N[C@H](CC(N)=O)C(=O)N[C@H](Cc1ccccc1)C(=O)N[C@H](CCSC)C(=O)N[C@H](CCCNC(=N)N)C(N)=O)C(C)C [Peptide 206, Hexyl-rsrwrdvarnfmr-NH2] (Hexanoyl-[dR][dS][dR][dW][dR][dD][dV][dA][dR][dN][dF][dM][dR]-NH2) | >64 µg/mL | 64 µg/mL (≈ 34.6 µM) | >64 µg/mL | >64 µg/mL | 32 µg/mL (≈ 17.3 µM)
CSCC[C@@H](NC(=O)[C@@H](Cc1ccccc1)NC(=O)[C@@H](CC(N)=O)NC(=O)[C@@H](CCCNC(=N)N)NC(=O)[C@@H](CO)NC(=O)[C@@H](Cc1c[nH]c2ccccc12)NC(=O)[C@@H](CC(=O)O)NC(=O)[C@@H](CCCNC(=N)N)NC(=O)[C@@H](Cc1c[nH]c2ccccc12)NC(=O)[C@@H](CCCNC(=N)N)NC(=O)[C@@H](CO)NC(=O)[C@@H](CCCNC(=N)N)NC(=O)CNC(=O)[C@H](NC(=O)[C@@H](CCCNC(=N)N)NC(=O)[C@@H](CO)NC(=O)[C@H](NC(=O)[C@@H](CCCNC(=N)N)NC(=O)[C@H](NC(C)=O)[C@H](C)O)C(C)C)[C@H](C)O)C(=O)N[C@H](CCCNC(=N)N)C(=O)N[C@H](C)C(=O)N[C@H](C)C(=O)N[C@@H](CCCCNC(C)=O)C(N)=O [Peptide 84, Ac-trvsrtgrsrwrdwsrnfmraaK(Ac)-NH2] (Ac-[dT][dR][dV][dS][dR][dT]G[dR][dS][dR][dW][dR][dD][dW][dS][dR][dN][dF][dM][dR][dA][dA]K(Ac)-NH2) |  | >64 µg/mL | >64 µg/mL |  | 32 µg/mL (≈ 10.8 µM)
CCCCCC(=O)NCCCC[C@@H](NC(=O)[C@@H](CCCNC(=N)N)NC(=O)[C@@H](CCSC)NC(=O)[C@@H](Cc1ccccc1)NC(=O)[C@@H](CC(N)=O)NC(=O)[C@@H](CCCNC(=N)N)NC(=O)[C@@H](C)NC(=O)[C@H](NC(=O)[C@@H](CC(=O)O)NC(=O)[C@@H](CCCNC(=N)N)NC(=O)[C@@H](Cc1c[nH]c2ccccc12)NC(=O)[C@@H](CCCNC(=N)N)NC(=O)[C@@H](CO)NC(=O)[C@H](N)CCCNC(=N)N)C(C)C)C(N)=O [Peptide 197, H2N-rsrwrdvarnfmrk(Hexanyl)-NH2] (H-[dR][dS][dR][dW][dR][dD][dV][dA][dR][dN][dF][dM][dR][dK](Hexanoyl)-NH2) | >64 µg/mL |  |  | >64 µg/mL | 
